Results published in paper PMC12391934, “Palladium-Catalyzed C–H Arylation of Quinoidal Scaffolds Through Homogeneous and Heterogeneous Pathways: Advancing Toward Trypanocidal Prototypes” (ACS Omega, 2025).

Columns and labels:
Format in all cases: cell-based
[1] = system: trypomastigote forms of Trypanosoma cruzi (Y strain); test: Trypanocidal assay, bloodstream trypomastigotes, 5% of blood at 4 °C; details: 24 h, concentration giving 50% lysis of the parasites, mean ± SD of at least three experiments
Protocol: 5% of blood at 4 °C: For all the experiments, stock solutions of the compounds were prepared in dimethyl sulfoxide, with the final concentration of the solvent never exceeding 0.5%, concentration known to exert no toxicity to the parasite or host cells. Bloodstream trypomastigotes of Y strain were obtained from infected Swiss Webster mice at the peak of parasitemia by differential centrifugation process. The parasites (5 × 10^6 parasites per mL) plus 5% of blood were incubated at 4 °C for 24 h in 5% CO2 atmosphere in absence or presence of the compounds. […] At least three independent experiments were performed, and the mean and standard deviation were calculated. The standard drug Bz was used as control.

in vitro = test: in vitro
[2] = system: trypomastigote forms of Trypanosoma cruzi (Y strain); test: Trypanocidal assay, bloodstream trypomastigotes, 0% of blood at 37 °C; details: 24 h, concentration giving 50% lysis of the parasites, mean ± SD of at least three experiments
Protocol: 0% of blood at 37 °C: The experiments were performed with the Y strain of T. cruzi.^11 Stock solutions of the compounds were prepared in dimethylsulfoxide (DMSO), with the final concentration of the latter in the experiments never exceeding 0.1%. […] Bloodstream trypomastigotes were obtained from infected Albino Swiss mice at the peak of parasitemia by differential centrifugation. The parasites were resuspended to a concentration of 10 × 10^6 cells/mL in DMES medium. This suspension (100 µL) was added to the same volume of each of the compounds, which had been previously prepared at twice the desired final concentrations. The incubation was performed in 96-well microplates (Nunc Inc., Rochester, USA) at 37 °C for 24 h. Benznidazole (Lafepe, Brazil), the standard drug for treatment of chagasic patients, was used as control.

Row | Compound | IC50 [1] [µM] | CC50 at 24 h (in vitro) [µM] | IC50 [2] [µM]
1 | Cc1ccc(C2=CC(=O)c3ccccc3C2=O)cc1 [3a] | 36.3 ± 2.9 | 24.6 ± 3.2 | 
2 | Cc1cccc(C2=CC(=O)c3ccccc3C2=O)c1 [3b] | 38.4 ± 1.3 | 14.3 ± 0.5 | 
3 | Cc1cc(C)cc(C2=CC(=O)c3ccccc3C2=O)c1 [3c] | 219 ± 13.4 |  | 
4 | O=C1C=C(c2ccccc2)C(=O)c2ccccc21 [3d] | 25.2 ± 2.8 | 9.4 ± 2.2 | 2.11 ± 0.1
5 | COc1ccc(C2=CC(=O)c3ccccc3C2=O)cc1 [3e] | 47.6 ± 0.6 | 34 ± 0.5 | 
6 | COc1cccc(C2=CC(=O)c3ccccc3C2=O)c1 [3f] | 30.7 ± 2.5 | 8.3 ± 1.3 | 3.85 ± 0.01
7 | O=C1C=C(c2ccc(C(F)(F)F)cc2)C(=O)c2ccccc21 [3g] | 30.6 ± 2.1 | 6.8 ± 0.2 | 
8 | COC(=O)c1ccc(C2=CC(=O)c3ccccc3C2=O)cc1 [3h] | 45.9 ± 4.3 | 30.6 ± 1 | 
9 | Cc1cc([N+](=O)[O-])ccc1C1=CC(=O)c2ccccc2C1=O [3i] | 39.5 ± 4.1 | 6.8 ± 0.6 | 
10 | COc1ccc(C2=CC(=O)c3ccccc3C2=O)c([N+](=O)[O-])c1 [3j] | 86.1 ± 7.2 |  | 
11 | COc1cc2c(cc1OC)C(=O)C(c1ccc(C)cc1)=CC2=O [3k] | 83.3 ± 4.8 |  | 
12 | Cc1ccc(C2=CC(=O)c3c(O)cccc3C2=O)cc1 [3l] | 14.4 ± 2.1 | 4.8 ± 0.9 | 0.31 ± 0.04
13 | O=C1C(c2ccccc2)=CC(=O)c2c(O)cccc21 [3m] | 12.7 ± 0.1 | < 3.9 | 0.34 ± 0.03
14 | O=C1C=C(c2ccccc2)C(=O)c2c(O)cccc21 [3n] | 13.7 ± 1.1 | 6.4 ± 0.5 | 0.69 ± 0.03
15 | Cc1cc(C)cc(C2=CC(=O)c3cc4ccccc4cc3C2=O)c1 [3p] | > 250 |  | 
16 | O=C1C=C(c2ccccc2)C(=O)c2cc3ccccc3cc21 [3q] | > 250 |  | 
17 | Cc1ccc(C2=CC(=O)C=C(c3ccc(C)cc3)C2=O)cc1 [3v] | 233 ± 12.4 |  | 
